Experiments:
PANC-1 = test: Inhibition of cells growth by colorimetric assay (SRB), PANC-1; assay type: cell-based; conditions: SRB, 48 hours exposure; for GI50 / LC50 (concentration for 50% net cell kill): Homo sapiens, PANC-1, 48 h; for GI50 / PANC-1 TGI: PANC-1; for GI50: read-out: PANC-1 GI50; for LC50 (concentration for 50% net cell kill): read-out: PANC-1 LC50, PANC-1
How it was run: (§1)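 First, cells were plated at 5×10^3 per well and left 18 h to attach. Next, compound was added over 10 to 10^−8 μg/ml for 48 h. Finally, cells were TCA-fixed, SRB-stained and absorbance read at 490 nm.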

SK-OV-3 = test: Inhibition of cells growth by colorimetric assay (SRB), SK-OV-3; assay type: cell-based; conditions: SRB, 48 hours exposure; for GI50 / LC50: Homo sapiens, SK-OV-3, 48 h; for GI50 / SK-OV3 TGI: SK-OV3; for GI50: read-out: SK-OV3 GI50; for LC50: read-out: SK-OV3 LC50, SK-OV3
How it was run: as §1

SK-BR-3 = test: Inhibition of cells growth by colorimetric assay (SRB), SK-BR-3; assay type: cell-based; conditions: SRB, 48 hours exposure; for GI50 / CC50: Homo sapiens, SK-BR-3, 48 h; for GI50 / SK-BR3 TGI: SK-BR3; for GI50: read-out: SK-BR3 GI50; for CC50: read-out: SK-BR3 LC50, SK-BR3
How it was run: as §1

K-562 = test: Inhibition of cells growth by colorimetric assay (SRB), K-562; assay type: cell-based; conditions: SRB, 48 hours exposure; for GI50 / LC50 (50% cell killing): Homo sapiens, K562, 48 h; for GI50 / K-562 TGI: K-562; for GI50: read-out: K-562 GI50; for LC50 (50% cell killing): read-out: K-562 LC50, K-562
How it was run: as §1

LNCaP = test: Inhibition of cells growth by colorimetric assay (SRB), LNCaP; assay type: cell-based; conditions: SRB, 48 hours exposure; for GI50 / CC50: Homo sapiens, LNCaP, 48 h; for GI50: read-out: LNCAP GI50, LNCAP; for CC50: read-out: LNCAP LC50, LNCAP
How it was run: as §1

HT-29 = test: Inhibition of cells growth by colorimetric assay (SRB), HT-29; assay type: cell-based; conditions: SRB, 48 hours exposure; for GI50 / LC50 (concentration for 50% cell killing): Homo sapiens, HT-29, 48 h; for HT-29 TGI / GI50: HT-29; for GI50: read-out: HT-29 GI50; for LC50 (concentration for 50% cell killing): read-out: HT-29 LC50, HT-29
How it was run: as §1

IGROV-ET = test: Inhibition of cells growth by colorimetric assay (SRB), IGROV-ET; assay type: cell-based; conditions: SRB, 48 hours exposure; for GI50 / CC50: Homo sapiens, 48 h; for GI50 / IGROV-ET TGI: IGROV-ET; for GI50: read-out: IGROV-ET GI50; for CC50: read-out: IGROV-ET LC50, IGROV-ET
How it was run: as §1

IGROV-1 = test: Inhibition of cells growth by colorimetric assay (SRB), IGROV-1; assay type: cell-based; conditions: SRB, 48 hours exposure; for GI50 / CC50: Homo sapiens, IGROV-1, 48 h; for GI50 / IGROV TGI: IGROV; for GI50: read-out: IGROV GI50; for CC50: read-out: IGROV LC50, IGROV
How it was run: as §1

DU-145 = test: Inhibition of cells growth by colorimetric assay (SRB), DU-145; assay type: cell-based; conditions: SRB, 48 hours exposure; for GI50 / CC50: Homo sapiens, DU-145, 48 h; for DU-145 TGI / GI50: DU-145; for GI50: read-out: DU-145 GI50; for CC50: read-out: DU-145 LC50, DU-145
How it was run: as §1

LoVo-Dox = test: Inhibition of cells growth by colorimetric assay (SRB), LoVo-Dox; assay type: cell-based; conditions: SRB, 48 hours exposure; for GI50 / CC50: Homo sapiens, 48 h; for GI50 / LOVO-DOX TGI: LOVO-DOX; for GI50: read-out: LOVO-DOX GI50; for CC50: read-out: LOVO-DOX LC50, LOVO-DOX
How it was run: as §1

A-549 = test: Inhibition of cells growth by colorimetric assay (SRB), A-549; assay type: cell-based; conditions: SRB, 48 hours exposure; for GI50 / LC50 (concentration for 50% cell killing): Homo sapiens, A549, 48 h; for A-549 TGI / GI50: A-549; for GI50: read-out: A-549 GI50; for LC50 (concentration for 50% cell killing): read-out: A-549 LC50, A-549
How it was run: as §1

SK-MEL-28 = test: Inhibition of cells growth by colorimetric assay (SRB), SK-MEL-28; assay type: cell-based; conditions: SRB, 48 hours exposure; for GI50 / CC50: Homo sapiens, SK-MEL-28, 48 h; for GI50 / MEL-28 TGI: MEL-28; for GI50: read-out: MEL-28 GI50; for CC50: read-out: MEL-28 LC50, MEL-28
How it was run: as §1

LoVo = test: Inhibition of cells growth by colorimetric assay (SRB), LoVo; assay type: cell-based; conditions: SRB, 48 hours exposure; for GI50 / LC50 (concentration for 50% cell killing): Homo sapiens, LoVo, 48 h; for GI50 / LOVO TGI: LOVO; for GI50: read-out: LOVO GI50; for LC50 (concentration for 50% cell killing): read-out: LOVO LC50, LOVO
How it was run: as §1

HMEC1 = test: Inhibition of cells growth by colorimetric assay (SRB), HMEC1; assay type: cell-based; conditions: SRB, 48 hours exposure; for GI50 / LC50: Homo sapiens, HMEC-1, 48 h; for HMEC-1 TGI / GI50: HMEC-1; for GI50: read-out: HMEC-1 GI50; for LC50: read-out: HMEC-1 LC50, HMEC-1
How it was run: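 Sulforhodamine B protein-stain readout (490 nm) after 48 h drug exposure, with GI, TGI and LC parameters calculated from triplicate means. Cells seeded at 5×10^3 per well, allowed 18 h drug-free attachment; dose range 10 to 10^−8 μg/ml, vehicle DMSO/EtOH/PBS (0.5:0.5:99).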

Source text for Heart: (§2) Toxicity was asssessed by the methods reported in Toxicology in Vitro, 15 (2001) 571-577, J. Luber Narod et al.: “Evaluation of the use of in vitro methodolodies as tools for screening new compounds for potential in vivo toxicity”.
Source text for Kidney: as §2
Source text for Liver: as §2
Source text for Myelo: as §2
Source text for Skeletal: as §2

## COC1=C(C)C(=O)C2=C(C1=O)[C@@H]1C3[C@@H]4SC[C@]5(NCCc6cc(O)c(OC)cc65)C(=O)OC[C@@H](c5c6c(c(C)c(OC(C)=O)c54)OCO6)N3[C@@H](O)[C@H](C2)N1C (stereo partly shown) [Compound 101]
PANC-1
  GI50: 5.66 nM
  LC50 (concentration for 50% net cell kill): 1.34 µM
  PANC-1 TGI: 2.27E-08
Heart
  Toxicity Data Heart: 7.67E-08
Liver
  Toxicity Data Liver: 5.40E-08
SK-OV-3
  GI50: 4.49 nM
  LC50: 12.9 µM
  SK-OV3 TGI: 9.77E-09
SK-BR-3
  GI50: 2.63 nM
  CC50: 46.8 nM
  SK-BR3 TGI: 6.44E-09
K-562
  GI50: 0.25 nM
  LC50 (50% cell killing): 0.0192 µM
  K-562 TGI: 6.20E-10
LNCaP
  GI50: 2.5 nM
  CC50: 7.71 nM
  LNCAP TGI: 4.40E-09
HT-29
  HT-29 TGI: 1.03E-08
  GI50: 3.57 nM
  LC50 (concentration for 50% cell killing): 12.9 µM
IGROV-ET
  GI50: 30.5 nM
  CC50: 0.246 µM
  IGROV-ET TGI: 6.88E-08
IGROV-1
  GI50: 2.5 nM
  CC50: 10.7 nM
  IGROV TGI: 5.17E-09
DU-145
  DU-145 TGI: 7.46E-09
  GI50: 3.74 nM
  CC50: 17.9 nM
LoVo-Dox
  GI50: 251 nM
  CC50: 12.9 µM
  LOVO-DOX TGI: 9.29E-07
Myelo
  Toxicity Data Myelo: 1.96E-08
Skeletal
  Toxicity Data Skeletal: 3.40E-09
Kidney
  Toxicity Data Kidney: 3.17E-08
A-549
  A-549 TGI: 6.52E-09
  GI50: 3.69 nM
  LC50 (concentration for 50% cell killing): 11.5 nM
SK-MEL-28
  GI50: 3.35 nM
  CC50: 26 nM
  MEL-28 TGI: 7.02E-09
LoVo
  GI50: 13.4 nM
  LC50 (concentration for 50% cell killing): 0.219 µM
  LOVO TGI: 4.68E-08
HMEC1
  HMEC-1 TGI: 1.17E-08
  GI50: 3.05 nM
  LC50: 12.9 µM

## COc1cc2c(cc1O)CCN(C)[C@]21CS[C@@H]2c3c(OC(C)=O)c(C)c4c(c3[C@H](COC1=O)N1C2[C@H]2c3c(cc(C)c(OC)c3O)C[C@@H]([C@@H]1O)N2C)OCO4 (stereo partly shown) [Compound 93]
PANC-1
  GI50: 0.314 nM
  LC50 (concentration for 50% net cell kill): 12.9 µM
  PANC-1 TGI: 1.29E-09
Heart
  Toxicity Data Heart: 4.46E-08
Liver
  Toxicity Data Liver: 1.13E-08
SK-OV-3
  GI50: 0.409 nM
  LC50: 12.9 µM
  SK-OV3 TGI: 1.29E-09
SK-BR-3
  GI50: 0.445 nM
  CC50: 9.5 nM
  SK-BR3 TGI: 1.96E-09
K-562
  GI50: 0.611 nM
  LC50 (50% cell killing): 9.54 µM
  K-562 TGI: 1.29E-08
LNCaP
  GI50: 2.85 nM
  CC50: 129 nM
  LNCAP TGI: 6.77E-09
HT-29
  HT-29 TGI: 1.29E-08
  GI50: 0.635 nM
  LC50 (concentration for 50% cell killing): 12.9 µM
IGROV-ET
  GI50: 21.5 nM
  CC50: 12.9 µM
  IGROV-ET TGI: 1.31E-07
IGROV-1
  GI50: 0.214 nM
  CC50: 129 nM
  IGROV TGI: 6.46E-10
DU-145
  DU-145 TGI: 6.30E-10
  GI50: 0.331 nM
  CC50: 1.29 nM
LoVo-Dox
  GI50: 7.71 nM
  CC50: 12.9 µM
  LOVO-DOX TGI: 9.87E-08
Myelo
  Toxicity Data Myelo: 3.35E-09
Skeletal
  Toxicity Data Skeletal: 5.52E-10
Kidney
  Toxicity Data Kidney: 6.32E-08
A-549
  A-549 TGI: 2.90E-09
  GI50: 0.463 nM
  LC50 (concentration for 50% cell killing): 12.9 nM
SK-MEL-28
  GI50: 0.281 nM
  CC50: 3.58 nM
  MEL-28 TGI: 6.24E-10
LoVo
  GI50: 0.768 nM
  LC50 (concentration for 50% cell killing): 12.9 µM
  LOVO TGI: 4.58E-09
HMEC1
  HMEC-1 TGI: 1.55E-10
  GI50: 0.037 nM
  LC50: 0.000487 µM
